The values below come from BindingDB's records for doi:10.1111/j.1747-0285.2007.00520.x (Pfizer, 2007).

For the assay, the target named is Coagulation factor X (Homo sapiens, UniProt P00742). As to the kind of experiment: Inhibition Assay.

Each structure is given as a SMILES string. Values joined by “and” are separate entries in the source; they are usually repeats but may differ in a detail not shown here. Equal values may be shown once. A value given as a limit tells only on which side of the number the result lay.

Chain of Coagulation factor X (P00742 41-179 limits assumed): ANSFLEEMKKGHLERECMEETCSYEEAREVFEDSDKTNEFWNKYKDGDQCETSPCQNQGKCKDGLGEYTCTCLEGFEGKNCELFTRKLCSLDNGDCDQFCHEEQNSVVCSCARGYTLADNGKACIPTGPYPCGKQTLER
Chain of Coagulation factor X (P00742 235-488 limits assumed): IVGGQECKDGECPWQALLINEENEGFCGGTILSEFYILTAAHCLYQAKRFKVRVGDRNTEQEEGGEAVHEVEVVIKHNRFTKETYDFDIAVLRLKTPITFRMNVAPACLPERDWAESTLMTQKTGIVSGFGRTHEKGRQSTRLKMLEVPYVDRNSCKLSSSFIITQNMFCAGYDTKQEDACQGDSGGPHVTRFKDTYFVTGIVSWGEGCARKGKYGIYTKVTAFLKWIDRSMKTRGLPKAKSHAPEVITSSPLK

For orientation: IC50 means the concentration that gives 50% inhibition. The low end stands for greater potency in that assay, the high end for weaker potency in that assay. As for `COc1cccc(NC(=O)N2CCCC2C(=O)Nc2ccc(-c3ccccc3S(N)(=O)=O)cc2F)c1` (stereo not drawn) [P1 Phenyl Ring, 32], the IC50 was greater than 4000 nM.
Compound `CS(=O)(=O)c1ccccc1-c1ccc(NC(=O)[C@H]2CC(F)(F)CN2C(=O)Nc2ccc(Cl)cc2)c(F)c1` [4-Substituted Pyrrolidine Ring, 21] returned an IC50 of 5 nM.
On to `Cc1ccc(NC(=O)N2CCCC2C(=O)Nc2ccc(-c3ccccc3S(N)(=O)=O)cc2F)cc1` (stereo not drawn) [P1 Phenyl Ring, 24], for which half-maximal inhibition (IC50) required 389 nM.
The same measure for `NS(=O)(=O)c1ccccc1-c1ccc(NC(=O)C2CCCN2C(=O)Nc2ccccc2F)c(F)c1` (stereo not drawn) [P1 Phenyl Ring, 33]: greater than 4000 nM; for `CS(=O)(=O)c1ccccc1-c1ccc(NC(=O)[C@H]2CC(O)CN2C(=O)Nc2ccc(F)cc2)c(F)c1` (stereo partly drawn) [4-Substituted Pyrrolidine Ring, 36]: 7.6 nM; for `Cc1ccc(NC(=O)N2CCCC2C(=O)Nc2ccc(-c3ccccc3S(N)(=O)=O)cc2F)cc1F` (stereo not drawn) [P1 Phenyl Ring, 25]: 516 nM.
In turn, `NS(=O)(=O)c1ccccc1-c1ccc(NC(=O)[C@H]2CC(O)CN2C(=O)Nc2ccc(Cl)cc2)c(F)c1` (stereo partly drawn) [4-Substituted Pyrrolidine Ring, 14] had an IC50 of 0.75 nM.
The figure for `COC1C[C@H](C(=O)Nc2ccc(-c3ccccc3S(C)(=O)=O)cc2F)N(C(=O)Nc2ccc(Cl)cn2)C1` (stereo partly drawn) [4-Substituted Pyrrolidine Ring, 35] is 1 nM; for `CS(=O)(=O)c1ccccc1-c1ccc(NC(=O)[C@H]2CC(O)CN2C(=O)Nc2ccc(Cl)cn2)c(F)c1` (stereo partly drawn) [4-Substituted Pyrrolidine Ring, 34] it is 4.3 nM.
The same measure for `NS(=O)(=O)c1ccccc1-c1ccc(NC(=O)C2CCCN2C(=O)Nc2ccc(Br)cc2)c(F)c1` (stereo not drawn) [P1 Phenyl Ring, 22]: 33 nM.
The same measure for `COc1ccc(NC(=O)N2CCCC2C(=O)Nc2ccc(-c3ccccc3S(N)(=O)=O)cc2F)cc1` (stereo not drawn) [P1 Phenyl Ring, 26]: 873 nM.
`CCc1ccc(NC(=O)N2CCCC2C(=O)Nc2ccc(-c3ccccc3S(N)(=O)=O)cc2F)cc1` (stereo not drawn) [P1 Phenyl Ring, 30] came in with an IC50 greater than 4000 nM.
In the case of `CS(=O)(=O)c1ccccc1-c1ccc(NC(=O)[C@H]2CC(F)CN2C(=O)Nc2ccc(Cl)cc2)c(F)c1` (stereo partly drawn) [4-Substituted Pyrrolidine Ring, 17], the IC50 is 7 nM and 1.2 nM.
For `NS(=O)(=O)c1ccccc1-c1ccc(NC(=O)C2CCCN2C(=O)Nc2ccccc2)c(F)c1` (stereo not drawn) [P1 Phenyl Ring, 27], the IC50 came out at 951 nM.
As to `NS(=O)(=O)c1ccccc1-c1ccc(NC(=O)C2CCCN2C(=O)Nc2ccc(C(F)(F)F)cc2)c(F)c1` (stereo not drawn) [P1 Phenyl Ring, 31], the IC50 is greater than 4000 nM.
Compound `NS(=O)(=O)c1ccccc1-c1ccc(NC(=O)C2CCCN2C(=O)Nc2cccc(Cl)c2)c(F)c1` (stereo not drawn) [P1 Phenyl Ring, 28] had an IC50 greater than 4000 nM.
`CS(=O)(=O)c1ccccc1-c1ccc(NC(=O)[C@H]2CC(=O)CN2C(=O)Nc2ccc(Cl)cc2)c(F)c1` [4-Substituted Pyrrolidine Ring, 20] returned an IC50 of 2.9 nM.
`NS(=O)(=O)c1ccccc1-c1ccc(NC(=O)C2CCCN2C(=O)Nc2ccc(Cl)c(Cl)c2)c(F)c1` (stereo not drawn) [P1 Phenyl Ring, 29]: the half-inhibitory concentration (IC50) was greater than 4000 nM.
